The ED50 is the midpoint of the dose-response relation. A lower ED50 goes with greater potency.

The subject of the assay is Canis familiaris. The assay can be described thus: Inhibition of gastric acid secretion in dogs stimulated by gastrin tetrapeptide when administered perorally. In kind it is functional. As to conditions: Canis lupus familiaris, Stomach, po.
With `CN/C(=N\CCSCc1nc[nH]c1C)NC#N` [CIMETIDINE], the 50% effect level (ED50) was put at a dose of 14.3 µmol/kg. Regarding `[2H]C([2H])([2H])c1cc(C)nc(N(CCN(C(C)C)C(C)C)C(=O)N(C)C)c1`, it took a dose of 7.26 µmol/kg to reach the 50% effect level (ED50). Next, `CC(C)N(CCN(C(=O)N(C)C)c1cc(C(F)(F)F)cc(C(F)(F)F)n1)C(C)C`: 43.9 µmol/kg; `Cc1cc(C)nc(N(CCN(C(C)C)C(C)C)C(=O)N(C)C)c1`: 15.3 µmol/kg.

The compound `Cc1cc(CO)nc(N(CCN(C(C)C)C(C)C)C(=O)N(C)C)c1` showed an ED50 of 29.4 µmol/kg. `Cc1cc(CO)cc(N(CCN(C(C)C)C(C)C)C(=O)N(C)C)n1` yielded an ED50 of 23.3 µmol/kg.

Source of the values: ChEMBL document CHEMBL1122400, “A deuterium isotope effect on the inhibition of gastric secretion by N,N-dimethyl-N'-[2-(diisopropylamino)ethyl]-N'-(4,6-dimethyl-2-pyridyl)urea. Synthesis of metabolites” (1983).
